Results from patent US9475817B2 (BRISTOL-MYERS SQUIBB COMPANY, priority 2012, dated 2016).

Assays:
CK1ε = CK1ε (Homo sapiens (Human), UniProt P49674); experiment: CK1ε kinase assay (Caliper LabChip, fluoresceinated peptide substrate); format: biochemical; details: 200 pM CK1ε, 50 μM ATP, 1.5 μM peptide substrate, 22 hours room temperature
Procedure: (§1) CK1ε and CK1δ Kinase Assays
(§2) The kinase assay was performed in V-bottom 384-well plates. […] The reaction was incubated at room temperature for 22 hours and terminated by adding 45 μl of 35 mM EDTA to each sample. […] Compounds were dissolved at 10 mM in dimethylsulfoxide (DMSO) and evaluated at eleven concentrations. IC50 values were derived by non-linear regression analysis.

CK1δ = CK1δ (Homo sapiens (Human), UniProt P48730); experiment: CK1δ kinase assay (Caliper LabChip, fluoresceinated peptide substrate); format: biochemical; details: 200 pM CK1δ, 50 μM ATP, 1.5 μM peptide substrate, 22 hours room temperature
CK1δ, sequence (P48730 whole entry): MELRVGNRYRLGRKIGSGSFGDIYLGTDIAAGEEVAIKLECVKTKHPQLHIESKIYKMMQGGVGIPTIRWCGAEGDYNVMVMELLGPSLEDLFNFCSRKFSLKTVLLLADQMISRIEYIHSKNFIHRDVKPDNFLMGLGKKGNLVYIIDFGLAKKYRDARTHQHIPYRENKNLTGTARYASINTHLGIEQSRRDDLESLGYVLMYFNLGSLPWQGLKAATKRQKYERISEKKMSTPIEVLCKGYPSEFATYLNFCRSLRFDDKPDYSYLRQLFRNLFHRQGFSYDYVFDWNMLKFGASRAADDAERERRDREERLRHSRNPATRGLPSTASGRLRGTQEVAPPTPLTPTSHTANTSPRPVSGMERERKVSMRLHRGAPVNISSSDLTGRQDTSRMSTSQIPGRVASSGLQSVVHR
Procedure: as §1, §2

CK1ε, sequence (P49674 whole entry): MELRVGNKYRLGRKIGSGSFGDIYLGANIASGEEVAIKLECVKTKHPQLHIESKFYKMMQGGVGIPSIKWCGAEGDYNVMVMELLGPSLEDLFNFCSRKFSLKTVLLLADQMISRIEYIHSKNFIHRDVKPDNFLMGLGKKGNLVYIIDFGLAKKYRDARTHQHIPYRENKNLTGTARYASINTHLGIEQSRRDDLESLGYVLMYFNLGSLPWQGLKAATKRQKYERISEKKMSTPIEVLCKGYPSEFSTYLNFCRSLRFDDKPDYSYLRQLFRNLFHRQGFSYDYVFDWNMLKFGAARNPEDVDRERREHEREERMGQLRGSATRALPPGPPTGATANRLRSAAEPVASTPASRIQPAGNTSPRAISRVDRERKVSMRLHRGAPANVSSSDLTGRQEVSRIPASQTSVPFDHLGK

IC50 (CK1ε) [nM] | IC50 (CK1δ) [nM] | SMILES
2.7 | 0.3 | COCC(=O)N1CCC(c2c(-c3ccc4nc(NC(=O)c5ccnc(F)c5)cn4n3)c(-c3ccc(F)cc3)nn2C)CC1 [Compound 152, 2-fluoro-N-(6-(3-(4-fluorophenyl)-5-(1-(2-methoxyacetyl)piperidin-4-yl)-1-methyl-1H-pyrazol-4-yl)imidazo[1,2-b]pyridazin-2-yl) isonicotinamide]
2.2 | 0.3 | Cn1nc(-c2ccc(F)cc2)c(-c2ccc3nc(NC(=O)c4ccnc(F)c4)cn3n2)c1C1CCN(C(=O)c2ccon2)CC1 [Compound 153, 2-fluoro-N-(6-(3-(4-fluorophenyl)-5-(1-(isoxazole-3-carbonyl)piperidin-4-yl)-1-methyl-1H-pyrazol-4-yl)imidazo[1,2-b]pyridazin-2-yl)isonicotinamide]
0.3 | 0.3 | Cn1nc(-c2ccc(F)cc2)c(-c2ccc3nc(NC(=O)c4ccnc(F)c4)cn3n2)c1C1CCN(C(=O)c2cncs2)CC1 [Compound 154, 2-fluoro-N-(6-(3-(4-fluorophenyl)-1-methyl-5-(1-(thiazole-5-carbonyl)piperidin-4-yl)-1H-pyrazol-4-yl)imidazo[1,2-b]pyridazin-2-yl)isonicotinamide]
2.6 | 0.4 | Cn1nc(-c2ccc(F)cc2)c(-c2ccc3nc(NC(=O)c4ccnc(F)c4)cn3n2)c1C1CCN(CCC#N)CC1 [Compound 156, N-(6-(5-(1-(2-Cyanoethyl)piperidin-4-yl)-3-(4-fluorophenyl)-1-methyl-1H-pyrazol-4-yl)imidazo[1,2-b]pyridazin-2-yl)-2-fluoroisonicotinamide]
1.3 | 0.3 | Cn1nc(-c2ccc(F)cc2)c(-c2ccc3nc(NC(=O)c4ccnc(F)c4)cn3n2)c1C1CCN(CC(N)=O)CC1 [Compound 157, N-(6-(5-(1-(2-Amino-2-oxoethyl)piperidin-4-yl)-3-(4-fluorophenyl)-1-methyl-1H-pyrazol-4-yl)imidazo[1,2-b]pyridazin-2-yl)-2-fluoroisonicotinamide]
0.3 | 0.2 | Cn1nc(-c2ccc(F)cc2)c(-c2ccc3nc(NC(=O)c4ccnc(F)c4)cn3n2)c1C1CCN(C[C@@H](O)C(F)(F)F)CC1 [Compound 158, (R)-2-Fluoro-N-(6-(3-(4-fluorophenyl)-1-methyl-5-(1-(3,3,3-trifluoro-2-hydroxypropyl)piperidin-4-yl)-1H-pyrazol-4-yl)imidazo[1,2-b]pyridazin-2-yl)isonicotinamide]
1.4 | 0.4 | Cn1nc(-c2ccc(F)cc2)c(-c2ccc3nc(NC(=O)c4ccnc(F)c4)cn3n2)c1C1CCN(C[C@H](O)C(F)(F)F)CC1 [Compound 159, (S)-2-Fluoro-N-(6-(3-(4-fluorophenyl)-1-methyl-5-(1-(3,3,3-trifluoro-2-hydroxypropyl)piperidin-4-yl)-1H-pyrazol-4-yl)imidazo[1,2-b]pyridazin-2-yl)isonicotinamide]
1 | 1.5 | Cn1nc(-c2ccc(F)cc2)c(-c2ccc3nc(NC(=O)c4ccnc(N5CCOCC5)c4)cn3n2)c1C1CCNCC1 [Compound 160, N-(6-(3-(4-Fluorophenyl)-1-methyl-5-(piperidin-4-yl)-1H-pyrazol-4-yl)imidazo[1,2-b]pyridazin-2-yl)-2-morpholinoisonicotinamide]
22.9 | 1.7 | Cn1nc(-c2ccc(F)cc2)c(-c2ccc3nc(NC(=O)c4ccnc(N5CCOCC5)c4)cn3n2)c1C1CCN(CCC(F)(F)F)CC1 [Compound 161, N-(6-(3-(4-Fluorophenyl)-1-methyl-5-(1-(3,3,3-trifluoropropyl)piperidin-4-yl)-1H-pyrazol-4-yl)imidazo[1,2-b]pyridazin-2-yl)-2-morpholinoisonicotinamide]
17.5 | 0.5 | Cn1nc(-c2ccc(F)cc2)c(-c2ccc3nc(NC(=O)c4ccnc(N5CCOCC5)c4)cn3n2)c1C1CCN(CCCF)CC1 [Compound 162, N-(6-(3-(4-Fluorophenyl)-5-(1-(3-fluoropropyl)piperidin-4-yl)-1-methyl-1H-pyrazol-4-yl)imidazo[1,2-b]pyridazin-2-yl)-2-morpholinoisonicotinamide]
0.6 | 0.4 | Cn1nc(-c2ccc(F)cc2)c(-c2ccc3nc(NC(=O)c4ccnc(N5CCOCC5)c4)cn3n2)c1C1CCN(CC(N)=O)CC1 [Compound 163, N-(6-(5-(1-(2-Amino-2-oxoethyl)piperidin-4-yl)-3-(4-fluorophenyl)-1-methyl-1H-pyrazol-4-yl)imidazo[1,2-b]pyridazin-2-yl)-2-morpholinoisonicotinamide]
3.3 | 0.9 | Cn1nc(-c2ccc(F)cc2)c(-c2ccc3nc(NC(=O)c4ccncc4)cn3n2)c1C1CCNCC1 [Compound 164, N-(6-(3-(4-Fluorophenyl)-1-methyl-5-(piperidin-4-yl)-1H-pyrazol-4-yl)imidazo[1,2-b]pyridazin-2-yl)isonicotinamide]
5 | 2.7 | CN1CCC(c2c(-c3ccc4nc(NC(=O)c5ccncc5)cn4n3)c(-c3ccc(F)cc3)nn2C)CC1 [Compound 165, N-(6-(3-(4-Fluorophenyl)-1-methyl-5-(1-methylpiperidin-4-yl)-1H-pyrazol-4-yl)imidazo[1,2-b]pyridazin-2-yl)isonicotinamide]
1.9 | 1.4 | Cn1nc(-c2ccc(F)cc2)c(-c2ccc3nc(NC(=O)c4ccncc4)cn3n2)c1C1CCN(C2CC2)CC1 [Compound 166, N-(6-(5-(1-cyclopropylpiperidin-4-yl)-3-(4-fluorophenyl)-1-methyl-1H-pyrazol-4-yl)imidazo[1,2-b]pyridazin-2-yl)isonicotinamide]
7.7 | 2.4 | Cn1nc(-c2ccc(F)cc2)c(-c2ccc3nc(NC(=O)c4ccncc4)cn3n2)c1C1CCN(C2CCOCC2)CC1 [Compound 167, N-(6-(3-(4-fluorophenyl)-1-methyl-5-(1-(tetrahydro-2H-pyran-4-yl)piperidin-4-yl)-1H-pyrazol-4-yl)imidazo[1,2-b]pyridazin-2-yl)isonicotinamide]
1.5 | 1.3 | Cn1nc(-c2ccc(F)cc2)c(-c2ccc3nc(NC(=O)c4ccncc4)cn3n2)c1C1CCN(CCO)CC1 [Compound 168, N-(6-(3-(4-fluorophenyl)-5-(1-(2-hydroxyethyl)piperidin-4-yl)-1-methyl-1H-pyrazol-4-yl)imidazo[1,2-b]pyridazin-2-yl)isonicotinamide]
0.8 | 1.4 | Cn1nc(-c2ccc(F)cc2)c(-c2ccc3nc(NC(=O)c4ccncc4)cn3n2)c1C1CCN(Cc2ccon2)CC1 [Compound 169, N-(6-(3-(4-fluorophenyl)-5-(1-(isoxazol-3-ylmethyl)piperidin-4-yl)-1-methyl-1H-pyrazol-4-yl)imidazo[1,2-b]pyridazin-2-yl)isonicotinamide]
7.4 | 2.6 | Cn1nc(-c2ccc(F)cc2)c(-c2ccc3nc(NC(=O)c4ccncc4)cn3n2)c1C1CCN(Cc2cc[nH]n2)CC1 [Compound 170, N-(6-(5-(1-((1H-pyrazol-3-yl)methyl)piperidin-4-yl)-3-(4-fluorophenyl)-1-methyl-1H-pyrazol-4-yl)imidazo[1,2-b]pyridazin-2-yl) isonicotinamide]
10.4 | 4.5 | Cn1nc(-c2ccc(F)cc2)c(-c2ccc3nc(NC(=O)c4ccncc4)cn3n2)c1C1CCN(Cc2cocn2)CC1 [Compound 172, N-(6-(3-(4-fluorophenyl)-1-methyl-5-(1-(oxazol-4-ylmethyl)piperidin-4-yl)-1H-pyrazol-4-yl)imidazo[1,2-b]pyridazin-2-yl) isonicotinamide]
6.4 | 1.5 | Cn1nc(-c2ccc(F)cc2)c(-c2ccc3nc(NC(=O)c4ccncc4)cn3n2)c1C1CCN(Cc2nccs2)CC1 [Compound 173, N-(6-(3-(4-fluorophenyl)-1-methyl-5-(1-(thiazol-2-ylmethyl)piperidin-4-yl)-1H-pyrazol-4-yl)imidazo[1,2-b]pyridazin-2-yl) isonicotinamide]
1.8 | 2.5 | Cc1nc(-c2cccnc2)sc1C(=O)Nc1cn2nc(-c3c(-c4ccc(F)cc4)nn(C)c3C3CCNCC3)ccc2n1 [Compound 174, N-(6-(3-(4-Fluorophenyl)-1-methyl-5-(piperidin-4-yl)-1H-pyrazol-4-yl)imidazo[1,2-b]pyridazin-2-yl)-4-methyl-2-(pyridin-3-yl)thiazole-5-carboxamide]
4 | 3 | Cc1nc(-c2cccnc2)sc1C(=O)Nc1cn2nc(-c3c(-c4ccc(F)cc4)nn(C)c3C3CCN(C)CC3)ccc2n1 [Compound 175, N-(6-(3-(4-Fluorophenyl)-1-methyl-5-(1-methylpiperidin-4-yl)-1H-pyrazol-4-yl)imidazo[1,2-b]pyridazin-2-yl)-4-methyl-2-(pyridin-3-yl)thiazole-5-carboxamide]
0.4 | 1 | Cc1nc(-c2cccnc2)sc1C(=O)Nc1cn2nc(-c3c(-c4ccc(F)cc4)nn(C)c3C3CCN(Cc4ccon4)CC3)ccc2n1 [Compound 176, N-(6-(3-(4-fluorophenyl)-5-(1-(isoxazol-3-ylmethyl)piperidin-4-yl)-1-methyl-1H-pyrazol-4-yl)imidazo[1,2-b]pyridazin-2-yl)-4-methyl-2-(pyridin-3-yl)thiazole-5-carboxamide]
12.2 | 0.7 | Cc1nc(-c2cccnc2)sc1C(=O)Nc1cn2nc(-c3c(-c4ccc(F)cc4)nn(C)c3C3CCN(CCC(F)(F)F)CC3)ccc2n1 [Compound 177, N-(6-(3-(4-fluorophenyl)-1-methyl-5-(1-(3,3,3-trifluoropropyl)piperidin-4-yl)-1H-pyrazol-4-yl)imidazo[1,2-b]pyridazin-2-yl)-4-methyl-2-(pyridin-3-yl)thiazole-5-carboxamide]
